Measurements from ChEMBL document CHEMBL5608237, “Merging Natural Product Structures with Pharmaceutical Leads: Unnatural Enantiomers of Estranes as Glucocorticoid Receptor Modulators That Suppress TNF-α and IL-6 Release” (J Med Chem, 2024).

What was measured:
Androgen receptor = target: T1, Androgen receptor (Homo sapiens, UniProt P10275); experiment: Antagonist activity at human androgen receptor transfected in African green monkey CV-1 cells cotransfected with genetic response element-luciferase reporter gene assessed as inhibition of 5alpha-dihydro-11-keto testosterone induced response incubated for 22 hrs by luciferase detection reagent based assay; assay type: cell-based
T1 sequence (P10275 whole entry): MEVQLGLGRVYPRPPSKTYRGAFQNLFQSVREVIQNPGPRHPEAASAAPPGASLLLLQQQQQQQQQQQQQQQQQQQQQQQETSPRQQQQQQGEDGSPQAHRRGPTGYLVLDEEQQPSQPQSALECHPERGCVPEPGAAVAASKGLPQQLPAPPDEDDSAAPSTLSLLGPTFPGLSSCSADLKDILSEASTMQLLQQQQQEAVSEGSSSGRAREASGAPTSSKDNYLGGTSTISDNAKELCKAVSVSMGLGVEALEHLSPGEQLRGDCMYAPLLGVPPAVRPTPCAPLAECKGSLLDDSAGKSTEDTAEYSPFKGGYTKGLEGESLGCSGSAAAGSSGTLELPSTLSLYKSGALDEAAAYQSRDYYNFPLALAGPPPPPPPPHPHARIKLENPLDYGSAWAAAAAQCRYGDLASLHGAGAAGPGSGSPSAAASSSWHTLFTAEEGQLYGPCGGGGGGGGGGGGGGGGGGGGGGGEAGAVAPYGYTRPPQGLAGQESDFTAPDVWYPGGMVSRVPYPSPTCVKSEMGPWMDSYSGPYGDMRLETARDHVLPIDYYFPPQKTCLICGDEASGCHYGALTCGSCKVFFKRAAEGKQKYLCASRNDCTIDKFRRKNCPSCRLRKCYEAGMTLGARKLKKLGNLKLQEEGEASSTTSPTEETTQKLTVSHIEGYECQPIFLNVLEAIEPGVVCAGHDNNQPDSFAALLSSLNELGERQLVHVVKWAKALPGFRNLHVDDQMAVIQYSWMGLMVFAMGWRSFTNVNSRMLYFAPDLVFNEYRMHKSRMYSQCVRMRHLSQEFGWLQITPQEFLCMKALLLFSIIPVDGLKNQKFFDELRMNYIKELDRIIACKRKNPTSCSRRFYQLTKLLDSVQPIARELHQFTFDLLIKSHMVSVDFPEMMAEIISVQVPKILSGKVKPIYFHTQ

[1] = Inhibition of TNF alpha production in recombinant human IL-1 beta induced A549 cells assessed as maximum inhibition preincubated with compound for 1 hr followed by IL-1 beta addition and measured after 20 hrs by MSD assay relative to control; assay type: functional; conditions: time 21 hrs
[2] = Inhibition of IL-6 production in recombinant human IL-1 beta induced A549 cells assessed as maximum inhibition preincubated with compound for 1 hr followed by IL-1 beta addition and measured after 20 hrs by MSD assay relative to control; assay type: functional; conditions: time 21 hrs

| IC50 (Androgen receptor) | SMILES | inhibition (INH) [2] | other results |
| --- | --- | --- | --- |
| > 10000 nM | Cc1ncncc1Nc1ccc2c(c1)CCC1=C3C[C@H](O)C[C@]3(C)CC[C@]12Cc1ccccc1 | – | – |
| – | Cc1ncccc1NC(=O)c1ccc2c(c1)C(=O)C[C@@H]1C[C@@](O)(c3ccccc3)[C@H](O)C[C@@]21Cc1ccccc1 | 60% | inhibition (INH) [1]: 60% |
| 401 nM | Cc1ncccc1Nc1ccc2c(c1)CCC1=C3C[C@@H](O)C[C@]3(C)CC[C@]12C | – | – |
| – | CC#C[C@]1(O)CC[C@H]2[C@@H]3CCC4=CC(=O)CCC4=C3[C@@H](c3ccc(N(C)C)cc3)C[C@@]21C [MIFEPRISTONE] | <20% | – |
| – | Cc1ncccc1NC(=O)c1ccc2c(c1)CC[C@@H]1C[C@@](O)(C(F)(F)F)CC[C@@]21Cc1ccccc1 [DAGROCORAT] | 60% | inhibition (INH) [1]: 60% |
| – | C[C@@H]1C[C@H]2[C@@H]3CCC4=CC(=O)C=C[C@]4(C)[C@@]3(F)[C@@H](O)C[C@]2(C)[C@@]1(O)C(=O)CO [DEXAMETHASONE] | – | Imax [1]: 100%; Imax [2]: 98% |
| > 10000 nM | Cc1ncncc1Nc1ccc2c(c1)CCC1=C3C[C@@H](O)C[C@]3(C)CC[C@]12Cc1ccccc1 | – | – |
| 174 nM | Cc1ncccc1Nc1ccc2c(c1)CCC1=C3C[C@@H](O)C[C@]3(C)CC[C@]12Cc1ccccc1 | – | – |
